According to patent US20260242390A1, “TOTAL SYNTHESES OF PORTIMINE A AND ANALOGUES THEREOF AS SMALL MOLECULE MODULATORS OF NMD3” (priority 2023, published 2026):

Test system: p53
Experiment: p53 protein level in Jurkat cells
Assay type: cell-based, human
Method: FIG. 7. Portimine A targets NMD3 and prevents polysome formation. […] (A) Immunoblot showing reduced NMD3 levels in shNMD3 Jurkat and HeLa cells. […] Jurkat cells were treated with 12.5 nM of PA for 12 or 24 hours. Jurkat and HeLa cells were treated with 5 nM or 150 nM of PA for 24 hours. Data represents mean±SD of biologically replicated experiments (n=3). […] Cell lysates were fractionated by sucrose gradient (5-50%) and each fraction were analyzed by western blot. eIF6 levels increase in 60S subunit fraction and decrease in ribosome-free fractions after PA treatment. RPS6, a 40S and polysome subunits marker, is decreased in polysome fractions after PA treatment. Results are representative of three independent experiments. […] Relative protein levels in each fraction were normalized to the peak fraction of the indicated protein from the DMSO cells and plotted. Data represents mean±SD of biologically replicated experiments (n=3). Statistical analysis was performed using multiple unpaired Student t-test. * p≤0.05; ** p≤0.01; *** p≤0.005; **** p≤0.0001. Treatment condition: Jurkat (5 M per condition); Incubate cells (1 M/mL) with inhibitors for 6 hr, 12 hr and 24 hr, respectively.
• 1) Portimine A and its functional analogs show stereo-selective acute toxicity in cancer cells (FIG. 1). […] (B) Structure of portimine related analogs: phenyl-portimine A (Ph-PA, 36) and epi-portimine A (ePA, 38). […]

C=CC1=C[C@@H]2[C@@H]3O[C@]4(CC[C@H](O4)C(C)C[C@@H](O)C3=O)CC(O)C3=NCC[C@@]32CC1 (stereo partly shown) [PA, portimine A]
p53 level: downregulated
